The values below are quoted from earlier work in patent US20080081070A1, “PHARMACEUTICAL FORMULATION WITH ENHANCED SOLUBILITY FOR THE DELIVERY OF CORTICOSTEROIDS” (priority 2006, published 2008).

For data set [1] the following is noted: animal studies.
Assay in data set [2]: not given
This is another data set of the same source.

For data set [3], the system named is mild and moderately active Crohn's disease.
The mark [4] stands for this setting: oral dosing of radiolabeled drug, humans.

≈ marks a conversion by molar mass, not a printed value.

For `CCC(=O)O[C@]1(C(=O)O)[C@H](C)C[C@H]2[C@@H]3C[C@H](F)C4=CC(=O)C=C[C@]4(C)[C@@]3(F)[C@@H](O)C[C@@]21C` [17-β-carboxylic acid], the pharmacologic activity entry in data set [1] is “negligible”.

`CCC(=O)O[C@]1(C(=O)SCF)[C@H](C)C[C@H]2[C@@H]3C[C@H](F)C4=CC(=O)C=C[C@]4(C)[C@@]3(F)[C@@H](O)C[C@@]21C` [Fluticasone propionate, S-fluoromethyl-6-α-9-difluoro-11-β-hydroxy-16-α-methyl-3-oxoandrosta-1,4-diene-17-β-carbothioate, 17-propionate]: the “solubility in 95% ethanol” value (95% ethanol) is reported as “slightly soluble”. Also, the “solubility in dimethyl sulfoxide” value (dimethyl sulfoxide) is “freely soluble”. For the same compound, for the setting “dimethyl-formamide”, the solubility in dimethyl-formamide entry is listed as “freely soluble”. Further, the solubility in methanol result (methanol) was “slightly soluble”. Besides, the solubility in water (water) is 0.14 µg/mL (≈ 0.28 µM). In data set [2] (average, predominantly through the liver), the total blood clearance is 1,093 mL/min. In data set [2] (setting [4]), the absorption result was “low”, the extraction from plasma result is “highly extracted” and the “oral bioavailability” value was “negligible”. Moreover, the “excretion of injected radioactivity calculated from whole body data” value in data set [3] (after three weeks oral treatment, before treatment 28 (21%), p less than 0.05) was 1.4 (0.7%). Also, the plasma cortisol values entry in data set [3] (three weeks oral treatment) is “no changes”. Besides, the leucocyte scan images entry in data set [3] (three weeks oral treatment, twelve patients) was “improved (seven patients) or unchanged (five patients)”.

Take `CCCC1O[C@@H]2C[C@H]3[C@@H]4CCC5=CC(=O)C=C[C@]5(C)[C@H]4[C@@H](O)C[C@]3(C)[C@]2(C(=O)CO)O1` (stereo partly shown) [budesonide]: in the data set with Crohn's disease (clinical studies), the “clinical features of hypercortisolism compared with prednisone” value is listed as “fewer” and the “likelihood of maintaining a normal plasma cortisol level compared with prednisone” value is reported as “greater likelihood”. Besides, the “bone mineral density compared with prednisone” value in the data set with Crohn's disease (two-year study) is on record as “decreased less”.
